Source: patent US9701962B2, “Hydrophobically modified antisense oligonucleotides comprising a ketal group” (Institut National de la Sante et de la Recherche Medicale …, priority 2013, dated 2017)
Strand notation (5' to 3'): a small letter for the sugar, then the base; units joined by * are phosphorothioate-linked, units joined directly phosphodiester-linked; [ ] holds rarer units or linkages, { } end groups; capitals alone tell only the bases. {(C15)2U} = uridine bearing a ketal whose carbon carries two C15 hydrocarbon chains (palmitone ketal); {C8F17} = hydrophobic mono-chain with C8F17 fluorocarbon moiety; d = 2'-deoxy (DNA)

Key:
[1] = system: TCTP protein and cell growth; assay: Screening of ASOs targeting TCTP mRNA for the lead sequence; assay type: cell-based, human; conditions: 15 sequences tested
Description: The design, synthesis and screening of ASOs targeting TCTP mRNA were performed to determine the lead sequence. Among the 27 sequences, 12 were withdrawn (lack of specificity, high GC percentage) and 15 have been tested among which, 3 have been selected (#10 of sequence SEQ ID NO: 2, #14 of sequence SEQ ID NO: 7, #15 of sequence SEQ ID NO: 6) for their efficiency to inhibit TCTP protein and cell growth.

[2] = system: cell membrane; assay: Penetration of the cell membrane; assay type: cell-based; conditions: compared with ASO#15PTO
[3] = system: TCTP protein; assay: TCTP protein expression by western blot in transfected PC-3 cells; assay type: cell-based, human; conditions: for inhibition of TCTP protein expression over a long period: 6 days after transfection
Description: The CR prostate cancer cell line PC-3 was purchased from the American Type Culture Collection (Rockville, Md., USA). The cells were maintained in Dulbecco's Modified Eagle's Medium (Invitrogen, Cergy Pontoise, France), supplemented with 10% fetal calf serum (FCS).
Prostatic cell line were transfected with ASO#15PD, ASO#15PTO, LASO#15PD, LASO#15PTO and LASO#15LNA at various concentrations (from 30 nM to 100 nM), in OptiMEM® medium (Invitrogen), without serum and in the presence or not of Oligofectamine™ transfection reagent (Invitrogen), according to the manufacturer's instructions.
Serum was added 4 hours after transfection. Two or three days after transfection, the level of TCTP protein expression and GAPDH (used as housekeeping gene) were determined by performing western blotting.
Western Blot analysis was performed as described previously (Rocchi et al., 2004, Cancer Res. 64:6595-602) with 1:2000 rabbit TCTP polyclonal antibody (Abcam Inc., Cambridge, UK). Loading levels were normalized using 1:5000 rabbit anti-glyceraldehyde-3-phosphate dehydrogenase polyclonal (Abcam Inc.).
Prostatic cell line were transfected with FASO#15PTO at 100 nM, in OptiMEM® medium (Invitrogen), without serum and in the presence or not of Oligofectamine™ transfection reagent (Invitrogen), according to the manufacturer's instructions.

Row | Substance | efficiency to inhibit TCTP protein and cell growth [1] | inhibition of TCTP protein expression over a long period [3] | other results
1 | 5′-ACCAATGAGCGAGTCATCAA-3′ (antisense (5'-ACCAATGAGCGAGTCATCAA-3'); as printed in the source, key not given here) [#10] | selected | – | –
2 | 5′-AACTTGTTTCCTGCAGGTGA-3′ (antisense (5'-AACTTGTTTCCTGCAGGTGA-3'); as printed in the source, key not given here) [#15] | selected | – | –
3 | 5′-TGGTTCATGACAATATCGAC-3′ (antisense (5'-TGGTTCATGACAATATCGAC-3'); as printed in the source, key not given here) [#14] | selected | – | –
4 | (C15)2U*5′AAC TTG TTT CCT GCA GGT GA3′ (DNA {(C15)2U}*dA*dA*dC*dT*dT*dG*dT*dT*dT*dC*dC*dT*dG*dC*dA*dG*dG*dT*dG*dA) [LASO#15PTO] | – | strong to complete inhibition | speed of penetrating the cell membrane [2]: more quickly than ASO#15PTO; inhibition of TCTP protein expression ([3]; PC-3, in absence of transfection agent, 3 days after transfection): able to inhibit; inhibition of TCTP protein expression ([3]; PC-3, in the presence of Oligofectamine, 30-100 nM, 2 or 3 days after transfection): most efficient
5 | Flurocarbon 5′AAC TTG TTT CCT GCA GGT GA3′ (DNA {C8F17}-dA*dA*dC*dT*dT*dG*dT*dT*dT*dC*dC*dT*dG*dC*dA*dG*dG*dT*dG*dA) [FASO#15PTO, reference compound] | – | – | inhibition of TCTP protein expression ([3]; PC-3, 100 nM, absence of Oligofectamine, 3 days after transfection): incapable of inhibiting; inhibition of TCTP protein expression ([3]; PC-3, 100 nM, presence of Oligofectamine, 3 days after transfection): incapable of inhibiting
6 | ASO#15PTO: DNA of sequence SEQ ID NO: 6 with a phosphorothiorate backbone (DNA dA*dA*dC*dT*dT*dG*dT*dT*dT*dC*dC*dT*dG*dC*dA*dG*dG*dT*dG*dA) [reference compound] | – | not the case | –
